According to ChEMBL document CHEMBL5465560, “Selectivity Literature for EUbOPEN Chemogenomic Library” (2024):
One block for each compound: values may come before it.

Experiments:
[1] = biological target: Platelet-derived growth factor receptor alpha (Homo sapiens, UniProt P16234); test: Selectivity interaction (KinomeScan (DiscoverX)) EUB0000666a PDGFRA; conditions: at 10 µM
[2] = biological target: T1, Eukaryotic elongation factor 2 kinase (Homo sapiens) (UniProt O00418); test: Selectivity interaction (SelectScreen profiling (Invitrogen)) EUB0000607a EEF2K; conditions: at 2 µM
T1 sequence (whole entry): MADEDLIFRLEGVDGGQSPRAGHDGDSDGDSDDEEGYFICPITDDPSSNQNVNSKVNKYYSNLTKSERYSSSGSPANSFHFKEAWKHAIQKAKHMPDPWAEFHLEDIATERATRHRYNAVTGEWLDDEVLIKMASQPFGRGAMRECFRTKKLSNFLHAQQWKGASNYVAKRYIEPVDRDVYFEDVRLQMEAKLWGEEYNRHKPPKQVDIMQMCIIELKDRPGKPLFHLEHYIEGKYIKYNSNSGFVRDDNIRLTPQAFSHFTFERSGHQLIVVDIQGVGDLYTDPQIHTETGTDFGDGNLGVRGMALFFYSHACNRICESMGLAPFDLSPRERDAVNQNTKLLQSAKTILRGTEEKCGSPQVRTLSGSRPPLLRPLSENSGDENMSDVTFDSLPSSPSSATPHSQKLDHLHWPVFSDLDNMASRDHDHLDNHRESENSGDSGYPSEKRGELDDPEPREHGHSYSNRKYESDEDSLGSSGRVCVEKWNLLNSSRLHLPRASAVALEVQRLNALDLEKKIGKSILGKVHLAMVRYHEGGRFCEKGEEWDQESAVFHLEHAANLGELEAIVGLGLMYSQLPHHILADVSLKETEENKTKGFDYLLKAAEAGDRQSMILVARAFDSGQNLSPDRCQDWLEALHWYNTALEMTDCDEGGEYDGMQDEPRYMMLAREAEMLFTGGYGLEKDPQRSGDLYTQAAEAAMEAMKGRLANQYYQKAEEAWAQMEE

[3] = biological target: ALK tyrosine kinase receptor (Homo sapiens, UniProt Q9UM73); test: Selectivity interaction (Millipore kinase profiler) EUB0000124b ALK; conditions: at 10 µM
[4] = biological target: Serine/threonine-protein kinase mTOR (Homo sapiens, UniProt P42345); test: Selectivity interaction (Ambit KINOMEscan and KiNATiv profiling in Jurkat cells) EUB0000090b MTOR; format: cell-based; conditions: at 1 µM
[5] = biological target: Epidermal growth factor receptor (Homo sapiens, UniProt P00533)
[6] = biological target: Cyclin-dependent kinase 1/cyclin B (Homo sapiens, UniProt P06493); test: Selectivity interaction (Kinase panel (Enzyme activity assay)) EUB0000612a CDK1; format: protein-complex assay
[7] = biological target: Calcium/calmodulin-dependent protein kinase type 1G (Homo sapiens) (UniProt Q96NX5); test: Selectivity interaction (KinomeScan (DiscoverX)) EUB0000045b CAMK1G
[8] = biological target: T2, Receptor-interacting serine/threonine-protein kinase 1 (Homo sapiens) (UniProt Q13546); test: Selectivity interaction (KinomeScan (DiscoverX)) EUB0001079a RIPK1; conditions: at 1 µM
T2 sequence (whole entry): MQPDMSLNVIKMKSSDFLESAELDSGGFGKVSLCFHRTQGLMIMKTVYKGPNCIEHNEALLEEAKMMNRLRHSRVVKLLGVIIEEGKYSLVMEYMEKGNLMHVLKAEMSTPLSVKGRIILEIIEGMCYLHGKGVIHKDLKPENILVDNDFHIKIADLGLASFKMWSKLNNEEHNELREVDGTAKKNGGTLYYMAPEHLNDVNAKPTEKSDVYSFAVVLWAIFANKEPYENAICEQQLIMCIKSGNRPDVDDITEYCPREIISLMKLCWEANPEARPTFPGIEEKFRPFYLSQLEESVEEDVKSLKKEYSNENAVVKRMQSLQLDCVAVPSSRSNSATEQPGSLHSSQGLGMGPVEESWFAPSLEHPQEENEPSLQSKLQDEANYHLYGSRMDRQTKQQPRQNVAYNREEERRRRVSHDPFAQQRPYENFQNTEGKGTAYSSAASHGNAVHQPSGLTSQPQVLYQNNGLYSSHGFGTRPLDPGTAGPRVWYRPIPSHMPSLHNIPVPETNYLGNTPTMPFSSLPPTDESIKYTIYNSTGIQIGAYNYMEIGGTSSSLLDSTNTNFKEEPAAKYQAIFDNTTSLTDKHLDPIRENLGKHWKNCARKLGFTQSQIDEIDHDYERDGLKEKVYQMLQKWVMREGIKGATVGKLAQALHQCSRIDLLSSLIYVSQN

[9] = biological target: Serine/threonine-protein kinase B-raf (Homo sapiens) (UniProt P15056); test: Selectivity interaction (Kinase panel (KiNativ target engagement assay in Jurkat cells)) EUB0001635a BRAF; format: cell-based; conditions: Selectivity number of off-targets 0.0, Selectivity number of targets 233.0, Source Knowledge https://www.sciencedirect.com/science/article/pii/S2451945619300674?via%3Dihub, at 1 µM
[10] = biological target: Ribosomal protein S6 kinase alpha-5 (Homo sapiens) (UniProt O75582); test: Selectivity interaction (KinomeScan (DiscoverX)) EUB0000618a RPS6KA5; conditions: at 10 µM
[11] = biological target: T3, Tyrosine-protein kinase ZAP-70 (Homo sapiens) (UniProt P43403); test: Selectivity interaction (ActivX KiNativ screen (ex vivo kinase selectivity in human PBMCs)) EUB0001619a ZAP70; format: cell-based; conditions: PBMC, at 1 µM
T3 sequence (whole entry): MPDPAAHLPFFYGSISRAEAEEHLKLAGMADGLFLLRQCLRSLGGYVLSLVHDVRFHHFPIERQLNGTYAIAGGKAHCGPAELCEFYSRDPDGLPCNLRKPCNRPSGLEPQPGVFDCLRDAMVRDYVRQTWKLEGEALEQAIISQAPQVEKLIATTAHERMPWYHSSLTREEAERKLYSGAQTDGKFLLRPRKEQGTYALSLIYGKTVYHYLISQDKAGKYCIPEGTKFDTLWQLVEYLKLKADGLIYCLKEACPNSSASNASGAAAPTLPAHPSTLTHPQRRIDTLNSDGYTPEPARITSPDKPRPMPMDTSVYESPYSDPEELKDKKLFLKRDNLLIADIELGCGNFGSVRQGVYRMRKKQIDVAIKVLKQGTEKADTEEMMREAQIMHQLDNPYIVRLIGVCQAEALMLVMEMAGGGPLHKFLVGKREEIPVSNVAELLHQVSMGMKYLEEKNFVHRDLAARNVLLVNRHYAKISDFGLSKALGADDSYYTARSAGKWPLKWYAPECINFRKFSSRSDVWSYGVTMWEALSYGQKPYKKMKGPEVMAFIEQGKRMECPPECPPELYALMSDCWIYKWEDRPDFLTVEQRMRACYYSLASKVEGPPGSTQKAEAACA

Sequence of Calcium/calmodulin-dependent protein kinase type 1G (Homo sapiens) (Q96NX5 whole entry): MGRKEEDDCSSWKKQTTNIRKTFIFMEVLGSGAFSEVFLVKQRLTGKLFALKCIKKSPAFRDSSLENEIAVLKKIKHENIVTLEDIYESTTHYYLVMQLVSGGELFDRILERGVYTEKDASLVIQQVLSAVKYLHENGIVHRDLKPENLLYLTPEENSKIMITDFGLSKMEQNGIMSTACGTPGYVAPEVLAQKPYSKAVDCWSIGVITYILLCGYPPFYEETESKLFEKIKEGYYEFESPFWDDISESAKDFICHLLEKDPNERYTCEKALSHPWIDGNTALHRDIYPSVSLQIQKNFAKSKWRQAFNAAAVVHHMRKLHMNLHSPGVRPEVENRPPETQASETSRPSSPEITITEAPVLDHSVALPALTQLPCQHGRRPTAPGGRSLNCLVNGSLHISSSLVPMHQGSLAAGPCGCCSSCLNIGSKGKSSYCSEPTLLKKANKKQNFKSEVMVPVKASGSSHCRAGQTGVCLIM
Sequence of Serine/threonine-protein kinase B-raf (Homo sapiens) (P15056 whole entry): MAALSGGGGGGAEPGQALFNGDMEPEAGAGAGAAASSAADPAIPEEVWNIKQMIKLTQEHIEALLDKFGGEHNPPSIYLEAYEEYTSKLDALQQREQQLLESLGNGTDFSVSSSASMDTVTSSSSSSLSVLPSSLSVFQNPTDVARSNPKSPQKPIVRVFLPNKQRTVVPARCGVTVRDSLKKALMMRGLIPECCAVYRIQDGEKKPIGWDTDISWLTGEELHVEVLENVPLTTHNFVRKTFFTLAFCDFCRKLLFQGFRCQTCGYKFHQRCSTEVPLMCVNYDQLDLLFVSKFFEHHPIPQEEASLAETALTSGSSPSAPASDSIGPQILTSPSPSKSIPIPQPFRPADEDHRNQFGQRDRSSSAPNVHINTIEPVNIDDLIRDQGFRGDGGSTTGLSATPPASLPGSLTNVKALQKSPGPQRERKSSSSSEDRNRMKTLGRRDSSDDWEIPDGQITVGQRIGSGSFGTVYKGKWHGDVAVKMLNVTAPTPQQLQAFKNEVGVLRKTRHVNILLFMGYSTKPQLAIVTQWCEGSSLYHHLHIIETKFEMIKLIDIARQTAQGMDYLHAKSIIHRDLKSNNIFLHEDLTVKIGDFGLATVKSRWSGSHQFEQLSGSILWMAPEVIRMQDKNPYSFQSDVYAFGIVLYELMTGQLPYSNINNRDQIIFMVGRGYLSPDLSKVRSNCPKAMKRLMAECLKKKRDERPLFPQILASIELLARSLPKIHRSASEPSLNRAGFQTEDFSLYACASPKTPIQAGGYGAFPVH
Sequence of Ribosomal protein S6 kinase alpha-5 (Homo sapiens) (O75582 whole entry, looked up): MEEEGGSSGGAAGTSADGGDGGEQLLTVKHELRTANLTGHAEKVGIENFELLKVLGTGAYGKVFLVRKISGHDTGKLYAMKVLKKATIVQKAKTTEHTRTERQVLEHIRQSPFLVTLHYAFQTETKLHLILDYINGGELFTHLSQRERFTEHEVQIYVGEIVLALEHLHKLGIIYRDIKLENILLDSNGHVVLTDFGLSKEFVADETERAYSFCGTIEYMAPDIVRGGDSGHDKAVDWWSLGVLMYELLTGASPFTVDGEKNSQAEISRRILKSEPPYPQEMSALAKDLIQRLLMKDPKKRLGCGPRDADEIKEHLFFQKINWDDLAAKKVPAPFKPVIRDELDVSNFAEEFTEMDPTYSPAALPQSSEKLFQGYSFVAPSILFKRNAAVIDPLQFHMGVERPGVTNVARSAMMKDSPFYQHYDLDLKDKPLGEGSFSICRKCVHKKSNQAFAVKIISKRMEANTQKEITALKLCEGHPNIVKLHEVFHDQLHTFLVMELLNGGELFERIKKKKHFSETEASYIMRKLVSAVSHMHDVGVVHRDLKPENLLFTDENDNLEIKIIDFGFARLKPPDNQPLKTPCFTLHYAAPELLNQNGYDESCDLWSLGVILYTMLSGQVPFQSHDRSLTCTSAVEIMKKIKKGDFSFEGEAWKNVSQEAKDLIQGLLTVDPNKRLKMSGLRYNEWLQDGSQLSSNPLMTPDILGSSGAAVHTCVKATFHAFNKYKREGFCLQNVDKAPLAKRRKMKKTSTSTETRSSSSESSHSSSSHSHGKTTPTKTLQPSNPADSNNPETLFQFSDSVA
Sequence of ALK tyrosine kinase receptor (Q9UM73 19-1620 limits assumed): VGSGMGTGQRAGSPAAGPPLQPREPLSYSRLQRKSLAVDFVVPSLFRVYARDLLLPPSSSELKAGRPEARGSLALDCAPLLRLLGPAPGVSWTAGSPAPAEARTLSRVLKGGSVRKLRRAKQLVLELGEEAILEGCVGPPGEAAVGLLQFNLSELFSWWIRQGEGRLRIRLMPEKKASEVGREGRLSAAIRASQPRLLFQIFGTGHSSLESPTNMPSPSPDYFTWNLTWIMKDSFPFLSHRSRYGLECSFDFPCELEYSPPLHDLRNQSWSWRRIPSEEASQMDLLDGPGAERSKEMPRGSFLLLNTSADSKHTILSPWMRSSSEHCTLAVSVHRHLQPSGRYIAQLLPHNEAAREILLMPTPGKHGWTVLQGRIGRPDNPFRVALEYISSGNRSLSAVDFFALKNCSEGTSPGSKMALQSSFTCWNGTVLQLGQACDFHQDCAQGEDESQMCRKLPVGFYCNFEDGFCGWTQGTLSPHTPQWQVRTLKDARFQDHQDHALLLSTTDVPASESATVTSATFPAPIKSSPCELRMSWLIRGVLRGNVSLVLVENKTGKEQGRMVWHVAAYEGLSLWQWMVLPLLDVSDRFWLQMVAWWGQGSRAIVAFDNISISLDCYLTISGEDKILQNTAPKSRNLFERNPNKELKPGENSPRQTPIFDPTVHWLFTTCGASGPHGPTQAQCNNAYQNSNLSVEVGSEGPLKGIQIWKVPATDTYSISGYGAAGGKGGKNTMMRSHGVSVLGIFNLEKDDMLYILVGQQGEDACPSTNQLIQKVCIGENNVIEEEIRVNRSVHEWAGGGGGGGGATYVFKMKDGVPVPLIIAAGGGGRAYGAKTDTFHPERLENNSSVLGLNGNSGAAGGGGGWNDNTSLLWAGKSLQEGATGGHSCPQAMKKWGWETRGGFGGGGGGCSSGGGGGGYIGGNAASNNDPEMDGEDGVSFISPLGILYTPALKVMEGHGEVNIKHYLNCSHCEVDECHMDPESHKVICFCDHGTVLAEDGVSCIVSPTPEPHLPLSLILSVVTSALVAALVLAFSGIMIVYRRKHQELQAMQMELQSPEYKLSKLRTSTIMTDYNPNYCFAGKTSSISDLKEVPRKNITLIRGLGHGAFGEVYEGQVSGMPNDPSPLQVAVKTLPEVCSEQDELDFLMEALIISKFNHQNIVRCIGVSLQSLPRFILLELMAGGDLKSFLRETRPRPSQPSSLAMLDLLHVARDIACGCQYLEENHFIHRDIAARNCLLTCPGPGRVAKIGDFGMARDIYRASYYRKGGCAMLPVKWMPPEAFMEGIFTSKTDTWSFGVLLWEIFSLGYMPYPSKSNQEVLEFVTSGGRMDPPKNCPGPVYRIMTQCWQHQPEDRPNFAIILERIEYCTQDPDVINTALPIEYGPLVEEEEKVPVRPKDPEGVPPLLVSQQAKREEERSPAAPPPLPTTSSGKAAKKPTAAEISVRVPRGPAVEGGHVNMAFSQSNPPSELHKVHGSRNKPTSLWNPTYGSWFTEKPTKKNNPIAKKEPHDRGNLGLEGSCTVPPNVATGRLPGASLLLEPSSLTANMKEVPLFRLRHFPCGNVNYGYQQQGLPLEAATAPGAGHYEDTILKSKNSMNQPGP
Sequence of Epidermal growth factor receptor (P00533 whole entry): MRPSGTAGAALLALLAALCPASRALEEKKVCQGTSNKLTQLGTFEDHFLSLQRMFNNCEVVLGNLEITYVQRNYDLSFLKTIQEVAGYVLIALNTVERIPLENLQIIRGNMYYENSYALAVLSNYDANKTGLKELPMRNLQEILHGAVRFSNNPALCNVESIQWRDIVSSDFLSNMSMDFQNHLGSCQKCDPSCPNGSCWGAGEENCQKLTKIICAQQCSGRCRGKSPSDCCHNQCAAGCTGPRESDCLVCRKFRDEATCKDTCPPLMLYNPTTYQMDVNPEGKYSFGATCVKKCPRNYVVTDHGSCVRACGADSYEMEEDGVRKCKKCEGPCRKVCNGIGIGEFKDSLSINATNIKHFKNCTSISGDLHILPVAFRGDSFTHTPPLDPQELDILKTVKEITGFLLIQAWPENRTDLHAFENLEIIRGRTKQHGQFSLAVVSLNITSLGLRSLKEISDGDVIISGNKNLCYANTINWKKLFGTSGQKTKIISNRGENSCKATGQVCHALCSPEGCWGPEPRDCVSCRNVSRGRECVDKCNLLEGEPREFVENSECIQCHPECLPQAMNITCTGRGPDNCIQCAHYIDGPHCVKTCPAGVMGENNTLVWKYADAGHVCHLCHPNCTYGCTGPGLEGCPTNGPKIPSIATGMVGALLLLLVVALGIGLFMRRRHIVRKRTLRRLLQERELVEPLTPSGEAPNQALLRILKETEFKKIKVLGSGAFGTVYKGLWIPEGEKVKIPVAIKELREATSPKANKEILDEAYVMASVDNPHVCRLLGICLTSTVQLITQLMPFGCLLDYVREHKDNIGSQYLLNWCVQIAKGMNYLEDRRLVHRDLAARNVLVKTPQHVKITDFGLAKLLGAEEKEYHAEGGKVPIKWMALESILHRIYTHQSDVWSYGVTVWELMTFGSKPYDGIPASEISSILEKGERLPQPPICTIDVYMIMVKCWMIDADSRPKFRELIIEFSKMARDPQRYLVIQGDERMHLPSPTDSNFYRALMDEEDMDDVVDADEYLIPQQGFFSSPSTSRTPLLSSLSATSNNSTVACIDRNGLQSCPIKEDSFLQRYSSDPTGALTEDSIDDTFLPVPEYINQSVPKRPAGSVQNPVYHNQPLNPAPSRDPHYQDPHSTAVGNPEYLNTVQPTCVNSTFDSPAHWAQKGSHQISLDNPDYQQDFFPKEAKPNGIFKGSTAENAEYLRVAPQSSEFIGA

Structure (SMILES): O=C(NOC[C@H](O)CO)c1ccc(F)c(F)c1Nc1ccc(I)cc1F
% of control [1]: 96%

Structure (SMILES): CNC(=O)Nc1ccc(-c2nc(N3CC4CCC(C3)O4)c3cnn(C4CCC5(CC4)OCCO5)c3n2)cc1
% of inhibition [2]: 1%

% of control [3]: 166%
Structure (SMILES): CC(=O)Nc1cccc(-n2c(=O)n(C3CC3)c(=O)c3c(Nc4ccc(I)cc4F)n(C)c(=O)c(C)c32)c1

Structure (SMILES): CN(C)C/C=C/C(=O)Nc1ccc(C(=O)N2CCCC(Nc3ncc(Cl)c(-c4c[nH]c5ccccc45)n3)C2)cc1 (configuration not stated)
% of control [4]: 100%

IC50 [5]: > 10 µM
IC50 [6]: > 10 µM
Structure (SMILES): CCc1cccc(CC)c1NC(=O)c1nn(C)c2c1CCc1cnc(Nc3ccc(C(=O)NC4CCN(C)CC4)cc3OC(F)(F)F)nc1-2

Structure (SMILES): C=CC(=O)Nc1cc(-n2c(=O)ccc3cnc4ccc(-c5ccc(NS(C)(=O)=O)cc5)cc4c32)ccc1C
% of control ([7]; at 1 µM): 100%
% of control ([7]; at 10 µM): 68%

Structure (SMILES): Nc1cnc(N2CCc3cc(S(=O)(=O)Nc4c(F)cc(Cl)cc4F)cc(N4CCCC4=O)c32)nc1 [TP-020n]
% of control [8]: 92%

Structure (SMILES): C=CC(=O)Nc1ccc(C(=O)Nc2[nH]nc3c2CN(C(=O)N[C@H](CN(C)C)c2ccccc2)C3(C)C)cc1
% of engagement [9]: 2.4%

Structure (SMILES): O[C@H]1CC[C@H](Nc2ncc3nc(Nc4c(F)cc(F)cc4F)n([C@H]4CCOC4)c3n2)CC1
% of control [10]: 100%

Structure (SMILES): N#Cc1cccc(-c2c[nH]c3ncnc(N4CCOCC4)c23)c1
% of inhibition [11]: -33%
